These results are taken from US20160058752A1, “TOPICAL […]-AFFECTIVE (TPNA) THERAPY FOR N[…]” (AFGIN PHARMA, LLC, priority 2014, published 2016).

Series [1] has as its system dopamine, norepinephrine, and serotonin receptors. The note with it: topical.
The next series deals with free nerve endings. Kind of series: Onset of clinical effect of TPNA therapy. In kind it is in vivo, human. As to conditions: topical.
Series [2] relates to local peripheral and generalized pain. The series is described as follows: Nuchal (BONATH) application of compounded opioids for pain relief in patients. The note with it: patients tapering off oral narcotics, nuchal delivery as only pain therapy. The source says: Previously described has is the “nuchal” (back of the neck at the hairline, or “BONATH”) application of triptans (Migraderm using sumatriptan) for migraine headache, tizanidine (Tizoderm) for cervical spasm and tension headache; and, apomorphine for the Parkinson's disease symptoms of tremor, rigidity, speech difficulties, and other “non-motor” symptoms.

The conditions of series [3]: after topical application in cold cream; cited from earlier work.

For the compound `CN1CCc2cccc3c2[C@H]1Cc1ccc(O)c(O)c1-3` [apomorphine], the “effect on symptoms of neuropathic pain and other symptoms of nerve dysfunction” value in series [1] is given as “treat symptoms of neuropathic pain”. Besides, the “onset of clinical effect” value in the series on free nerve endings was in the range of 10 to 15 min.

As to `NCCc1ccc(O)c(O)c1` [dopamine], the “effect on symptoms of neuropathic pain and other symptoms of nerve dysfunction” value in series [1] is on record as “treat symptoms of neuropathic pain”.

Turning to `CN1CC[C@]23c4c5ccc(O)c4O[C@H]2[C@@H](O)C=C[C@H]3[C@H]1C5.O=S(=O)(O)O` [morphine sulfate], the narcotic withdrawal symptoms result in series [2] is reported as “no significant narcotic withdrawal symptoms”.

With `CN1CC[C@]23c4c5ccc(O)c4O[C@H]2[C@@H](O)C=C[C@H]3[C@H]1C5` [morphine], the “morphine levels in blood or urine” value in series [3] is given as “not detected”.

`COc1cccc(C2(O)CCCCC2CN(C)C)c1` (stereo not drawn) [tramadol]: the narcotic withdrawal symptoms entry in series [2] is given as “no significant narcotic withdrawal symptoms”.
